Test results reported in patent US9828366B2, “Bicyclic derivatives and pharmaceutical composition including the same” (HANMI PHARM. CO., LTD., priority 2014, dated 2017).

Each molecule was assayed on C57BL/6 male mice (assay: Urinary glucose excretion test (UGE test)). Settings: 3 mg/kg oral (Examples 13 to 38), 2 g/kg glucose after 30 minutes, urine collected for 24 hours.
Assay type: in vivo
Protocol: The pharmaceutical efficacies of the compounds prepared in the Examples were investigated by a urinary glucose excretion test using C57BL/6 male mice (8-week-old, prepared and supplied from Orient Chemical Co. Ltd.).
Two mice were used in each group. The mice were fasted for 16 hours, and the compound of each of the Examples [10 mg/kg of the compound of Examples 1 to 12; and 3 mg/kg of the compound of Examples 13 to 38] was dissolved in a vehicle [a mixed solution of 5% 1-methyl-2-pyrrolidinone, 20% PEG, and 75% 20 mM sodium diphosphate], and orally administered to the mice. After 30 minutes, 2 g/kg of glucose was orally administered to the mice in all the groups. Thereafter, the mice were immediately put into a metabolic cage, and urine was collected for 24 hours. The mice were freely fed an hour after the administration of glucose.
The results obtained from the test, that is, the results obtained by measuring urinary glucose excretion in the C57BL/6 male mice according to the compounds of the Examples, are listed in Table 5.
In the case of `CCOc1ccc(Cc2cc([C@@H]3O[C@H](CO)[C@@H](O)[C@H](O)[C@H]3O)cc3c2CCC3)cc1` [Example 13, (2S,3R,4R,5S,6R)-2-(7-(4-ethoxybenzyl)-2,3-dihydro-1H-inden-5-yl)-6-(hydroxymethyl)tetrahydro-2H-pyran-3,4,5-triol], the UGE is reported as 1.7 mg/20 g/24 hr.
`CCCc1ccc(Cc2cc([C@@H]3O[C@H](CO)[C@@H](O)[C@H](O)[C@H]3O)cc3c2CCC3)cc1` [Example 17, (2R,3S,4R,5R,6S)-2-(hydroxymethyl)-6-(7-(4-propylbenzyl)-2,3-dihydro-1H-inden-5-yl)tetrahydro-2H-pyran-3,4,5-triol] showed a UGE of 1.0 mg/20 g/24 hr.
Molecule `CC(C)c1ccc(Cc2cc([C@@H]3O[C@H](CO)[C@@H](O)[C@H](O)[C@H]3O)cc3c2CCC3)cc1` [Example 18, (2R,3S,4R,5R,6S)-2-(hydroxymethyl)-6-(7-(4-isopropylbenzyl)-2,3-dihydro-1H-inden-5-yl)tetrahydro-2H-pyran-3,4,5-triol] has a UGE of 7.0 mg/20 g/24 hr.
In the case of `CCOc1ccc(Cc2cc([C@@H]3O[C@H](CO)[C@@H](O)[C@H](O)[C@H]3O)cc3c2CCC3)cc1F` [Example 20, (2S,3R,4R,5S,6R)-2-(7-(4-ethoxy-3-fluorobenzyl)-2,3-dihydro-1H-inden-5-yl)-6-(hydroxymethyl)tetrahydro-2H-pyran-3,4,5-triol], the UGE is reported as 0.6 mg/20 g/24 hr.
`CCOc1ccc(Cc2cc([C@@H]3O[C@H](CO)[C@@H](O)[C@H](O)[C@H]3O)cc3c2CCC3)c(F)c1` [Example 21, (2S,3R,4R,5S,6R)-2-(7-(4-ethoxy-2-fluorobenzyl)-2,3-dihydro-1H-inden-5-yl)-6-(hydroxymethyl)tetrahydro-2H-pyran-3,4,5-triol] was tested, and the UGE was 4.2 mg/20 g/24 hr.
`Cc1ccc(Cc2cc([C@@H]3O[C@H](CO)[C@@H](O)[C@H](O)[C@H]3O)cc3c2CCC3)cc1F` [Example 25, (2S,3R,4R,5S,6R)-2-(7-(3-fluoro-4-methylbenzyl)-2,3-dihydro-1H-inden-5-yl)-6-(hydroxymethyl)tetrahydro-2H-pyran-3,4,5-triol] was tested, and the UGE was 5.5 mg/20 g/24 hr.
`Cc1ccc(Cc2cc([C@@H]3O[C@H](CO)[C@@H](O)[C@H](O)[C@H]3O)cc3c2CCC3)c(F)c1` [Example 26, (2S,3R,4R,5S,6R)-2-(7-(2-fluoro-4-methylbenzyl)-2,3-dihydro-1H-inden-5-yl)-6-(hydroxymethyl)tetrahydro-2H-pyran-3,4,5-triol] showed a UGE of 4.8 mg/20 g/24 hr.
